In patent publication US20230286970A1, “NOVEL OXADIAZOLE-BASED SELECTIVE HDAC6 INHIBITORS” (ITALFARMACO S.P.A., priority 2020, published 2023):

How the values were obtained:
[1] = target: recombinant human HDAC6 (Homo sapiens (Human), UniProt Q9UBN7); assay: Enzymatic screening, HDAC6 inhibition (fluorogenic FdL_G substrate); type: biochemical
Outline: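 Enzyme was preincubated with compound (8 doses, triplicate, 1% DMSO) in 25 mM Tris-HCl pH 8, 130 mM NaCl, 0.05% Tween-20, 10% glycerol, with BSA. A FLUOR DE LYS-Green substrate was then added, and fluorescence was read after developer plus 2 μM TSA.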

[2] = target: recombinant human HDAC1 (Homo sapiens (Human), UniProt Q13547); assay: Enzymatic screening, HDAC1 inhibition (fluorogenic FdL_G substrate); type: biochemical
Sequence of recombinant human HDAC1 (Q13547 whole entry): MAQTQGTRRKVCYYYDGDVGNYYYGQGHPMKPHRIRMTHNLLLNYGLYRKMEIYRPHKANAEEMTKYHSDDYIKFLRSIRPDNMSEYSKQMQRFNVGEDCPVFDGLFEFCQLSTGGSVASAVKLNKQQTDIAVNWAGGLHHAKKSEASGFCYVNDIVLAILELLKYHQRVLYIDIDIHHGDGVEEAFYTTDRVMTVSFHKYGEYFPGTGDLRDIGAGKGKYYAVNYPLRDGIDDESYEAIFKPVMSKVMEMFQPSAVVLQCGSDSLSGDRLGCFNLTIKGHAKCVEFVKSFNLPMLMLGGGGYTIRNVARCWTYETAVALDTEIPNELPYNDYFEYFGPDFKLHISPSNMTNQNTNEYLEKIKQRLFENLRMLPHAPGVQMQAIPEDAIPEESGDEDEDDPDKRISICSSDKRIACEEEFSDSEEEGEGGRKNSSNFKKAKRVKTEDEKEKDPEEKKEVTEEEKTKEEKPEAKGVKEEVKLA
Outline: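 Recombinant human HDAC1 inhibition was measured fluorometrically using the FLUOR DE LYS-Green (FdL_G) substrate. Compounds at 8 doses (1% DMSO final) in Tris-HCl pH 8 buffer with NaCl, Tween-20 and glycerol were preincubated in triplicate with enzyme and 1 mg/mL BSA, then given substrate. Developer I plus 2 μM TSA was added, and fluorescence read after 25 minutes in the dark.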

Sequence of recombinant human HDAC6 (Q9UBN7 whole entry): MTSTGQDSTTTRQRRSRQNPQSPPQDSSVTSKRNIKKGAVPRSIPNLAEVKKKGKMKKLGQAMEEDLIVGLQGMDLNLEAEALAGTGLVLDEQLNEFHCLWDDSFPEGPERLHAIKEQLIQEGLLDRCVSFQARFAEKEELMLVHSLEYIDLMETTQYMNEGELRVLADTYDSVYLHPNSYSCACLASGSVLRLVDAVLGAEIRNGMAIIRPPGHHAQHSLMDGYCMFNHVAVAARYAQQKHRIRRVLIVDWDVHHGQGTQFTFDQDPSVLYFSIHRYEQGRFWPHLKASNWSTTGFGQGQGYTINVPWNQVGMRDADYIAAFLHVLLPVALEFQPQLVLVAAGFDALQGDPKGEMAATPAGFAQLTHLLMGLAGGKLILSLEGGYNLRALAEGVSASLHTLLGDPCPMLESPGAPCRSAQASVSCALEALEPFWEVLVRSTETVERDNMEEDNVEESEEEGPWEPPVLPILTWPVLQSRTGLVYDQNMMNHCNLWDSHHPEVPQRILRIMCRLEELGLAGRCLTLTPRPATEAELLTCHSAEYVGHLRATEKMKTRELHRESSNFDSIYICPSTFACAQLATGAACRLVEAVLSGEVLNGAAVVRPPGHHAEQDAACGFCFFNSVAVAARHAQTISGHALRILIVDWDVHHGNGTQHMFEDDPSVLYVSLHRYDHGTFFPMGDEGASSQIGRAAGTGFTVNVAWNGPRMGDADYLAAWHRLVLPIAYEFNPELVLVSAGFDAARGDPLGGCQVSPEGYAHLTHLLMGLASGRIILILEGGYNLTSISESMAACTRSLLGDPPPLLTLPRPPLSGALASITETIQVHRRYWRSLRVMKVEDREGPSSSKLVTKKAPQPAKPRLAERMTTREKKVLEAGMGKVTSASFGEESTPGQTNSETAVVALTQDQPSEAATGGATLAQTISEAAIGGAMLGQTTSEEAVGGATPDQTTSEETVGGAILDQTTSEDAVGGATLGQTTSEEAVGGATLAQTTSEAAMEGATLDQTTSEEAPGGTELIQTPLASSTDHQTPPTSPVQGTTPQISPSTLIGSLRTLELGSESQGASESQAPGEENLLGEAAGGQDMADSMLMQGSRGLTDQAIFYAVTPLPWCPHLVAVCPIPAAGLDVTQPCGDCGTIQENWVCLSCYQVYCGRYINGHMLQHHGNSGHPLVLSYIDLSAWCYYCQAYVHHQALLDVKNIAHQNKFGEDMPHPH

Structure (SMILES) | IC50 [1] [nM] | IC50 [2] [nM]
CN1CCC(NC(=O)c2ccc(-c3nnn(Cc4ccc(-c5nnc(C(F)F)o5)cc4)n3)cc2)CC1 [compound 232, 4-(2-(4-(5-(difluoromethyl)-1,3,4-oxadiazol-2-yl)benzyl)-2H-tetrazol-5-yl)-N-(1-methylpiperidin-4-yl)benzamide] | 198 | > 200000
COc1ccccc1-c1cn(Cc2ccc(-c3nnc(C(F)F)o3)cc2)nn1 [compound 233, 2-(difluoromethyl)-5-(4-((4-(2-methoxyphenyl)-1H-1,2,3-triazol-1-yl)methyl)phenyl)-1,3,4-oxadiazole] | 200 | > 200000
Nc1ccc(-c2cn(C(COc3ccccc3)c3ccc(-c4nnc(C(F)F)o4)cc3)nn2)cn1 (stereo not drawn) [compound 236, 5-(1-(1-(4-(5-(difluoromethyl)-1,3,4-oxadiazol-2-yl)phenyl)-2-phenoxyethyl)-1H-1,2,3-triazol-4-yl)pyridin-2-amine] | 206 | > 200000
O=C(NCC1CC1)C1CCCN(C(=O)c2ccc(-c3cn(Cc4c(F)cc(-c5nnc(C(F)F)o5)cc4F)nn3)cc2)C1 (stereo not drawn) [compound 239, N-(cyclopropylmethyl)-1-(4-(1-(4-(5-(difluoromethyl)-1,3,4-oxadiazol-2-yl)-2,6-difluorobenzyl)-1H-1,2,3-triazol-4-yl)benzoyl)piperidine-3-carboxamide] | 215 | > 200000
CC(C)(C)OC(=O)N1CCn2ncc(-c3cccc(-c4nnn(Cc5ccc(-c6nnc(C(F)F)o6)cc5)n4)c3)c2C1 [compound 240, tert-butyl 3-(3-(2-(4-(5-(difluoromethyl)-1,3,4-oxadiazol-2-yl)benzyl)-2H-tetrazol-5-yl)phenyl)-6,7-dihydropyrazolo[1,5-a]pyrazine-5 (4H)-carboxylate] | 215 | > 200000
Cc1nc(F)ccc1-c1cn(Cc2ccc(-c3nnc(C(F)F)o3)cc2)nn1 [compound 241, 2-(difluoromethyl)-5-(4-((4-(6-fluoro-2-methylpyridin-3-yl)-1H-1,2,3-triazol-1-yl)methyl)phenyl)-1,3,4-oxadiazole] | 216 | > 200000
CCCCC(c1ccc(-c2nnc(C(F)F)o2)cc1)n1cc(-c2cccc(NC(=O)N3CCOCC3)c2)nn1 (stereo not drawn) [compound 244, N-(3-(1-(1-(4-(5-(difluoromethyl)-1,3,4-oxadiazol-2-yl)phenyl)pentyl)-1H-1,2,3-triazol-4-yl)phenyl)morpholine-4-carboxamide] | 240 | > 200000
CC1(C)NC(=O)c2cc(-c3cn(Cc4ccc(-c5nnc(C(F)F)o5)cc4)nn3)ccc21 [compound 245, 6-(1-(4-(5-(difluoromethyl)-1,3,4-oxadiazol-2-yl)benzyl)-1H-1,2,3-triazol-4-yl)-3,3-dimethylisoindolin-1-one] | 264 | > 200000
FC(F)c1nnc(-c2ccc(Cn3nnc(-c4cccc(-c5ccccc5)c4)n3)cc2)o1 [compound 246, 2-(4-((5-([1,1′-biphenyl]-3-yl)-2H-tetrazol-2-yl)methyl)phenyl)-5-(difluoromethyl)-1,3,4-oxadiazole] | 266 | > 200000
Fc1cccc(-c2cn(Cc3ccc(-c4nnc(C(F)F)o4)cc3)nn2)c1 [compound 248, 2-(difluoromethyl)-5-(4-((4-(3-fluorophenyl)-1H-1,2,3-triazol-1-yl)methyl)phenyl)-1,3,4-oxadiazole] | 275 | > 200000
CN(C)c1nc2cc(-c3nnn(Cc4ccc(-c5nnc(C(F)F)o5)cc4)n3)ccc2o1 [compound 249, 5-(2-(4-(5-(difluoromethyl)-1,3,4-oxadiazol-2-yl)benzyl)-2H-tetrazol-5-yl)-N,N-dimethylbenzo[d]oxazol-2-amine] | 277 | > 200000
FC(F)c1nnc(-c2ccc(Cn3nnc(Cc4ccccn4)n3)cc2)o1 [compound 251, 2-(difluoromethyl)-5-(4-((5-(pyridin-2-ylmethyl)-2H-tetrazol-2-yl)methyl)phenyl)-1,3,4-oxadiazole] | 298 | > 200000
Cn1c(N)nc2cc(-c3nnn(Cc4ncc(-c5nnc(C(F)F)o5)cn4)n3)ccc21 [compound 252, 5-(2-((5-(5-(difluoromethyl)-1,3,4-oxadiazol-2-yl)pyrimidin-2-yl)methyl)-2H-tetrazol-5-yl)-1-methyl-1H-benzo[d]imidazol-2-amine] | 27 | > 200000
CN(Cc1ccncc1)Cc1ccc(-c2nc(Cc3c(F)cc(-c4nnc(C(F)F)o4)cc3F)no2)cc1 [compound 254, N-(4-(3-(4-(5-(difluoromethyl)-1,3,4-oxadiazol-2-yl)-2,6-difluorobenzyl)-1,2,4-oxadiazol-5-yl)benzyl)-N-methyl-1-(pyridin-4-yl)methanamine] | 361 | > 200000
FC(F)c1nnc(-c2ccc(Cn3nnc(C4(c5ccccc5)CC4)n3)cc2)o1 [compound 256, 2-(difluoromethyl)-5-(4-((5-(1-phenylcyclopropyl)-2H-tetrazol-2-yl)methyl)phenyl)-1,3,4-oxadiazole] | 393 | > 200000
CC(=O)N1CCC(c2nnn(Cc3ccc(-c4nnc(C(F)F)o4)cc3)n2)CC1 [compound 257, 1-(4-(2-(4-(5-(difluoromethyl)-1,3,4-oxadiazol-2-yl)benzyl)-2H-tetrazol-5-yl)piperidin-1-yl)ethan-1-one] | 395 | > 200000
O=C(Nc1cc(-c2nnn(Cc3ccc(-c4nnc(C(F)F)o4)cc3)n2)ccc1Sc1ccccc1)N1CCOCC1 [compound 258, N-(5-(2-(4-(5-(difluoromethyl)-1,3,4-oxadiazol-2-yl)benzyl)-2H-tetrazol-5-yl)-2-(phenylthio)phenyl)morpholine-4-carboxamide] | 410 | > 200000
CN(Cc1ccc(-c2nc(Cc3ccc(-c4nnc(C(F)F)o4)cc3)no2)cc1)C(=O)C(F)F [compound 259, N-(4-(3-(4-(5-(difluoromethyl)-1,3,4-oxadiazol-2-yl)benzyl)-1,2,4-oxadiazol-5-yl)benzyl)-2,2-difluoro-N-methylacetamide] | 439 | > 200000
NC(=O)c1cccc(-c2nc(Cc3ccc(-c4nnc(C(F)F)o4)cc3)no2)c1 [compound 262, 3-(3-(4-(5-(difluoromethyl)-1,3,4-oxadiazol-2-yl)benzyl)-1,2,4-oxadiazol-5-yl)benzamide] | 488 | > 200000
CC(C)(C)OC(=O)N1CCC2(CC1)Nc1cc(-c3cn(Cc4ccc(-c5nnc(C(F)F)o5)cc4)nn3)ccc1NC2=O [compound 268, tert-butyl 7′-(1-(4-(5-(difluoromethyl)-1,3,4-oxadiazol-2-yl)benzyl)-1H-1,2,3-triazol-4-yl)-3′-oxo-3′,4′-dihydro-1′H-spiro[piperidine-4,2′-quinoxaline]-1-carboxylate] | 254 | > 200000
O=C1Nc2ccc(-c3cn(Cc4ccc(-c5nnc(C(F)F)o5)cc4)nn3)cc2NC12CCNCC2 [compound 271, 7′-(1-(4-(5-(difluoromethyl)-1,3,4-oxadiazol-2-yl)benzyl)-1H-1,2,3-triazol-4-yl)-1′,4′-dihydro-3′H-spiro[piperidine-4,2′-quinoxalin]-3′-one] | 43 | > 200000
CC(C)(C)OC(=O)N1CCc2[nH]c(-c3cccc(-c4nnn(Cc5ccc(-c6nnc(C(F)F)o6)cc5)n4)c3)nc2C1 [compound 272, tert-butyl 2-(3-(2-(4-(5-(difluoromethyl)-1,3,4-oxadiazol-2-yl)benzyl)-2H-tetrazol-5-yl)phenyl)-1,4,6,7-tetrahydro-5H-imidazo[4,5-c]pyridine-5-carboxylate] | 407 | > 200000
FC(F)c1nnc(-c2ccc(Cn3nnc(-c4cccc(-c5nc6c([nH]5)CCNC6)c4)n3)nc2)o1 [compound 276, 2-(difluoromethyl)-5-(6-((5-(3-(4,5,6,7-tetrahydro-1H-imidazo[4,5-c]pyridin-2-yl)phenyl)-2H-tetrazol-2-yl)methyl)pyridin-3-yl)-1,3,4-oxadiazole] | 9 | 165000
O=C1Nc2cc(-c3cn(Cc4ccc(-c5nnc(C(F)F)o5)cc4)nn3)ccc2NC12CCNCC2 [compound 277, 6′-(1-(4-(5-(difluoromethyl)-1,3,4-oxadiazol-2-yl)benzyl)-1H-1,2,3-triazol-4-yl)-1′,4′-dihydro-3′H-spiro[piperidine-4,2′-quinoxalin]-3′-one] | 72 | 166000
CC(C)(C)OC(=O)N1CCC2(CC1)Nc1ccc(-c3cn(Cc4ccc(-c5nnc(C(F)F)o5)cc4)nn3)cc1NC2=O [compound 279, tert-butyl 6′-(1-(4-(5-(difluoromethyl)-1,3,4-oxadiazol-2-yl)benzyl)-1H-1,2,3-triazol-4-yl)-3′-oxo-3′,4′-dihydro-1′H-spiro[piperidine-4,2′-quinoxaline]-1-carboxylate] | 286 | > 200000
FC(F)c1nnc(-c2ccc(Cn3cc(-c4cnc5cccnn45)nn3)cc2)o1 [compound 280, 2-(difluoromethyl)-5-(4-((4-(imidazo[1,2-b]pyridazin-3-yl)-1H-1,2,3-triazol-1-yl)methyl)phenyl)-1,3,4-oxadiazole] | 89 | > 200000
CN(C)c1ccc(-c2cn(Cc3ccc(-c4nnc(C(F)F)o4)cc3)nn2)cc1 [compound 281, 4-(1-(4-(5-(difluoromethyl)-1,3,4-oxadiazol-2-yl)benzyl)-1H-1,2,3-triazol-4-yl)-N,N-dimethylaniline] | 200 | > 200000
